According to US11505536B2, “Dihydroorotate dehydrogenase inhibitors” (Janssen Biotech, Inc., priority 2019, dated 2022):

Tests used:
human DHODH = human DHODH (Homo sapiens (Human), UniProt Q02127); assay: DHODH Enzymatic Assay; format: biochemical; conditions: purified human DHODH, DCIP absorbance, end-point mode; read-out: hDHODH IC50
How it was run: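 Purified human DHODH in […] HEPES pH 7.5, 150 mM NaCl, 0.5 mM EDTA, 0.1% Triton X-100; reaction started with substrate mix of 20 mM DHO, 5 mM CoQ6, 1 mM DCIP. End-point read as DCIP reduction (absorbance ~600 nm) after brequinar quench.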

[1] = test system: MOLM-13 cells (human acute myeloid leukemia cells); assay: MOLM-13 Cellular Assay; format: cell-based; conditions: Homo sapiens, MOLM-13, 72 h, 72 hours exposure, cell viability by CellTiter-Glo
How it was run: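 MOLM-13 AML cells, seeded at 5,000/well in RPMI 1640 with 10% FBS, were treated with compounds right after seeding for 72 h at 37 °C, 5% CO2. Viability read by CellTiter-Glo luminescence.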

Sequence of human DHODH (Q02127 whole entry): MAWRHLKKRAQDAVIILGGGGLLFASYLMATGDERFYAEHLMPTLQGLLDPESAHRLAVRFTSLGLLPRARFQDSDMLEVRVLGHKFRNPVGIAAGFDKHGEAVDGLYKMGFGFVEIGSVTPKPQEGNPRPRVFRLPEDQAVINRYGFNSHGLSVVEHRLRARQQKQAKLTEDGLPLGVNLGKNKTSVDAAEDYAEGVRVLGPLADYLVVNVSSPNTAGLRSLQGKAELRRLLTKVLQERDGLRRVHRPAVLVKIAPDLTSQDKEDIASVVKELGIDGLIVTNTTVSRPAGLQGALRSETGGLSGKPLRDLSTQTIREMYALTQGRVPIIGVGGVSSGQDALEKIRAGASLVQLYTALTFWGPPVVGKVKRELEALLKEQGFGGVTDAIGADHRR

Row | IC50 (human DHODH) [nM] | IC50 [1] [nM] | Structure (SMILES)
1 | 566 | > 100 | CCn1c(CO)nn(-c2cc3c(C(C)C)cn(-c4cncnc4C)c(=O)c3cc2F)c1=O [Example 94, 6-(4-Ethyl-3-(hydroxymethyl)-5-oxo-4,5-dihydro-1H-1,2,4-triazol-1-yl)-7-fluoro-4-isopropyl-2-(4-methylpyrimidin-5-yl)isoquinolin-1(2H)-one]
2 | 0.772 | 1 | CCn1c(CO)nn(-c2cc3c(C(C)C)cn(-c4ccccc4OC)c(=O)c3cc2F)c1=O [Example 95, 6-(4-Ethyl-3-(hydroxymethyl)-5-oxo-4,5-dihydro-1H-1,2,4-triazol-1-yl)-7-fluoro-4-isopropyl-2-(2-methoxyphenyl)isoquinolin-1(2H)-one]
3 | > 10000 | > 100 | CCn1c(CO)nn(-c2cc3c(C(C)C)cn(-c4nccnc4C)c(=O)c3cc2F)c1=O [Example 97, 6-(4-Ethyl-3-(hydroxymethyl)-5-oxo-4,5-dihydro-1H-1,2,4-triazol-1-yl)-7-fluoro-4-isopropyl-2-(3-methylpyrazin-2-yl)isoquinolin-1(2H)-one]
4 | 6.29 | 50 | CCn1c(CO)nn(-c2cc3c(C(C)C)cn(-c4cc(C)cnc4Cl)c(=O)c3cc2F)c1=O [Example 98, 2-(2-Chloro-5-methylpyridin-3-yl)-6-(4-ethyl-3-(hydroxymethyl)-5-oxo-4,5-dihydro-1H-1,2,4-triazol-1-yl)-7-fluoro-4-isopropylisoquinolin-1(2H)-one]
5 | 70.7 | > 100 | CCn1c(CO)nn(-c2cc3c(C(C)C)cn(-c4nnccc4C)c(=O)c3cc2F)c1=O [Example 100, 6-(4-Ethyl-3-(hydroxymethyl)-5-oxo-4,5-dihydro-1H-1,2,4-triazol-1-yl)-7-fluoro 4-isopropyl-2-(4-methylpyridazin-3-yl)isoquinolin-1(2H)-one]
6 | 43.5 | > 100 | CCn1c(CO)nn(-c2cc3c(C(C)C)cn(-c4ncncc4C)c(=O)c3cc2F)c1=O [Example 104, 6-(4-Ethyl-3-(hydroxymethyl)-5-oxo-4,5-dihydro-1H-1,2,4-triazol-1-yl)-7-fluoro-4-isopropyl-2-(5-methylpyrimidin-4-yl)isoquinolin-1(2H)-one]

Continued, compound first:

Row | Structure (SMILES) | IC50 (human DHODH) [nM] | IC50 [1] [nM]
7 | CCn1c(CO)nn(-c2cc3c(C(C)C)cn(-c4nc(OC)ccc4F)c(=O)c3cc2F)c1=O [Example 96, 6-(4-Ethyl-3-(hydroxymethyl)-5-oxo-4,5-dihydro-1H-1,2,4-triazol-1-yl)-7-fluoro-2-(3-fluoro-6-methoxypyridin-2-yl)-4-isopropylisoquinolin-1(2H)-one] | 6.14 | 9
8 | CCn1c(CO)nn(-c2nc3c(C(C)C)cn(-c4cc(C)ccc4F)c(=O)c3cc2F)c1=O [Example 99, 2-(4-Ethyl-3-(hydroxymethyl)-5-oxo-4,5-dihydro-1H-1,2,4-triazol-1-yl)-3-fluoro-6-(2-fluoro-5-methylphenyl)-8-isopropyl-1,6-naphthyridin-5(6H)-one] | 6.1 | 7
9 | CCn1c(CO)nn(-c2cc3c([C@H](C)C(F)(F)F)cn(-c4ccccc4C)c(=O)c3cc2F)c1=O [Example 101, (S)-6-(4-Ethyl-3-(hydroxymethyl)-5-oxo-4,5-dihydro-1H-1,2,4-triazol-1-yl)-7-fluoro-2-(o-tolyl)-4-(1,1,1-trifluoropropan-2-yl)isoquinolin-1(2H)-one] | 1.19 | 0.4
10 | CCn1c(CO)nn(-c2cc3c([C@@H](C)C(F)(F)F)cn(-c4ccccc4C)c(=O)c3cc2F)c1=O [Example 102, (R)-6-(4-Ethyl-3-(hydroxymethyl)-5-oxo-4,5-dihydro-1H-1,2,4-triazol-1-yl)-7-fluoro-2-(o-tolyl)-4-(1,1,1-trifluoropropan-2-yl)isoquinolin-1(2H)-one] | 0.26 | 0.3
11 | CCn1c(CO)nn(-c2cc3c(C(C)C)cn(-c4ccccc4C(F)(F)F)c(=O)c3cc2F)c1=O [Example 103, 6-(4-Ethyl-3-(hydroxymethyl)-5-oxo-4,5-dihydro-1H-1,2,4-triazol-1-yl)-7-fluoro-4-isopropyl-2-(2-(trifluoromethyl)phenyl)isoquinolin-1(2H)-one] | 0.669 | 0.3
